Assay results reported in BindingDB's records for doi:10.1021/acschembio.5b00755 (German Cancer Research Center (Dkfz), 2016).
pIC50: −log10 of the molar value.

Target: Methionine aminopeptidase 2 (Homo sapiens, UniProt P50579)
Assay: Biochemical Assays
Details: pH 7.5
Method: Stock solutions for all assays were prepared in DMSO (10 mM) and stored at −20 °C. Assays were performed in 96 well plates (Greiner) at a total reaction volume of 100 μL. […] Then, the substrate Met-Gly-Met-Met was added to a final concentration of 400 μM. After an incubation period of 15 min (HsMetAP1), 20 min (EcMetAP), or 60 min (HsMetAP2) at 37 °C, the enzyme reactionwas stopped by adding 10 μL 4% trifluoroacetic acid (TFA), and the plate was centrifuged at 1000g for 10 min. Detection of the product Gly-Met-Met was performed by HPLC: C18 column (Dr. Maisch, ReproSil-Pur 120 ODS-3, 3 μm, 50 × 2 mm). An 80 μL injection volume was eluted with mobile phases A (H2O and 0.1% TFA, filtered, degasse

Chain of Methionine aminopeptidase 2 (P50579 whole entry): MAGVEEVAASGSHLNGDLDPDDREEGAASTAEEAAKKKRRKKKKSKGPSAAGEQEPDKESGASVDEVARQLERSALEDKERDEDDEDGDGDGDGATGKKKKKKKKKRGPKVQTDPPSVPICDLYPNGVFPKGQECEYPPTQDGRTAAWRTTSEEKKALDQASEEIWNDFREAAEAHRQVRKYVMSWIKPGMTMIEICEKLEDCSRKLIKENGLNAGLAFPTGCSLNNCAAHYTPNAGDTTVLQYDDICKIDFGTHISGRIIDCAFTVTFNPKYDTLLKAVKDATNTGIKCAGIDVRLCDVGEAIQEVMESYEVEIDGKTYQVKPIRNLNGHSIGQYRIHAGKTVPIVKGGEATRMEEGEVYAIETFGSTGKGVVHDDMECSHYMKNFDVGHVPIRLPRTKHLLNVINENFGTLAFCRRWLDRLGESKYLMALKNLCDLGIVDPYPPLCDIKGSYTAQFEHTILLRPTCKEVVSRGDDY

`COc1ccc(Cn2nnc3c2[C@]2(CC[C@H]3OC(=O)NCC(C)C)CO2)cc1` (relative stereo) [(2'R*,7R*)-3-(4-methoxybenzyl)-3,5,6,7-tetrahydrospiro[benzo[d][1,2,3]triazole-4,2'-oxiran]-7-yl isobutylcarbamate (32)] and `COc1ccc(Cn2nnc3c2[C@]2(CC[C@H]3NC(=O)OCC(C)C)CO2)cc1` [isobutyl ((2'R*,7R*)-3-(4-methoxybenzyl)-3,5,6,7-tetrahydrospiro[benzo[d][1,2,3]triazole-4,2'-oxiran]-7-yl)carbamate (35)] are the same in pIC50: 6.22 for the first, 6.22 for the second.

`COc1ccc(Cn2nnc3c2[C@]2(CC[C@H]3OC(=O)Nc3ccccc3)CO2)cc1` (relative stereo) [(2'R*,7R*)-3-(4-methoxybenzyl)-3,5,6,7-tetrahydrospiro[benzo[d][1,2,3]triazole-4,2'-oxiran]-7-yl phenylcarbamate (34)] and `COc1ccc(Cn2nnc3c2[C@]2(CC[C@H]3OC(=O)c3ccccc3)CO2)cc1` [(2'R*,7R*)-3-(4-methoxybenzyl)-3,5,6,7-tetrahydrospiro[benzo[d][1,2,3]triazole-4,2'-oxiran]-7-yl benzoate (17a)] are within 0.2 log units of each other in pIC50: 6.00 for the first, 6.03 for the second.

Going from `O=C(O[C@@H]1CC[C@]2(CO2)c2c1nnn2Cc1ccccc1)c1ccccc1` (relative stereo) [(2'R*,7R*)-3-benzyl-3,5,6,7-tetrahydrospiro [benzo[d][1,2,3]triazole-4,2'-oxiran]-7-yl benzoate (29a)] to `O=C(O[C@H]1CC[C@]2(CO2)c2c1nnn2Cc1ccccc1)c1ccccc1` (relative stereo) [(2'R*,7S*)-3-benzyl-3,5,6,7-tetrahydrospiro [benzo[d][1,2,3]triazole-4,2'-oxiran]-7-yl benzoate (29b)], the pIC50 falls from 5.85 to under 4.30. The first is the more potent here.

Going from `CC(C)NC(=O)O[C@@H]1CC[C@]2(CO2)c2c1nnn2Cc1ccccc1` (relative stereo) [(2'R*,7R*)-3-benzyl-3,5,6,7-tetrahydrospiro [benzo[d][1,2,3]triazole-4,2'-oxiran]-7-yl isopropylcarbamate (30a)] to `CC(C)NC(=O)O[C@H]1CC[C@]2(CO2)c2c1nnn2Cc1ccccc1` (relative stereo) [(2'R*,7S*)-3-benzyl-3,5,6,7-tetrahydrospiro [benzo[d][1,2,3]triazole-4,2'-oxiran]-7-yl isopropylcarbamate (30b)], the pIC50 falls from 6.11 to 4.34 (1.77 log units). The first is the more potent here.

Compared with `C=C1CCC(OC(=O)c2ccccc2)c2nnn(Cc3ccc(OC)cc3)c21` (centres undefined) [1-[(4-methoxyphenyl)methyl]-7-methylidene-4,5,6,7-tetrahydro-1H-1,2,3-benzotriazol-4-yl benzoate (16)], `COc1ccc(Cn2nnc3c2[C@]2(CC[C@@H]3OC(=O)c3ccccc3)CO2)cc1` [(2'R*,7S*)-3-(4-methoxybenzyl)-3,5,6,7-tetrahydrospiro[benzo[d][1,2,3]triazole-4,2'-oxiran]-7-yl benzoate (17b)] is higher in pIC50: under 4.30 for the first, 4.46 for the second.

`Cc1ccccc1Cn1nnc2c1C1(CCC2=O)CO1` (centres undefined) [3-(2-methylbenzyl)-5,6-dihydrospiro[benzo[d][1,2,3]triazole-4,2'-oxiran]-7(3H)-one (23)] and `O=C1CCC2(CO2)c2c1nnn2Cc1ccccc1` (centres undefined) [3-benzyl-5,6-dihydrospiro[benzo[d][1,2,3]triazole-4,2'-oxiran]-7(3H)-one (22)] are within 0.2 log units of each other in pIC50: 5.64 for the first, 5.54 for the second.

Compared with `O=C1CCC2(CO2)c2c1nnn2Cc1ccc(C(F)(F)F)cc1` (centres undefined) [3-(4-(trifluoromethyl)benzyl)-5,6-dihydrospiro[benzo[d][1,2,3]triazole-4,2'-oxiran]-7(3H)-one (28)], `O=C1CCC2(CO2)c2c1nnn2Cc1ccc(F)cc1` (centres undefined) [3-(4-fluorobenzyl)-5,6-dihydrospiro[benzo[d][1,2,3]triazole-4,2'-oxiran]-7(3H)-one (26)] is 0.24 log units higher in pIC50: 6.36 for the first, 6.60 for the second. The second is the more potent here.

`O=C1CCC2(CO2)c2c1nnn2Cc1ccc(Cl)cc1` (centres undefined) [3-(4-chlorobenzyl)-5,6-dihydrospiro[benzo[d][1,2,3]triazole-4,2'-oxiran]-7(3H)-one (27)] and `COc1ccc(Cn2nnc3c2C2(CCC3=O)CO2)cc1` (centres undefined) [3-(4-methoxybenzyl)-5,6-dihydrospiro[benzo[d][1,2,3]triazole-4,2'-oxiran]-7(3H)-one (14)] are within 0.2 log units of each other in pIC50: 6.28 for the first, 6.34 for the second.

Going from `N#Cc1cccc(Cn2nnc3c2C2(CCC3=O)CO2)c1` (centres undefined) [3-((7-oxo-6,7-dihydrospiro[benzo[d][1,2,3]triazole-4,2'-oxiran]-3(5H)-yl)methyl)benzonitrile (24)] to `O=C1CCC2(CO2)c2c1nnn2Cc1ccc2ccccc2c1` (centres undefined) [3-(naphthalen-2-ylmethyl)-5,6-dihydrospiro[benzo[d][1,2,3]triazole-4,2'-oxiran]-7(3H)-one (25)], the pIC50 rises from 5.96 to 6.23 (0.27 log units). The second is the more potent here.

`O=C1CCC2(CO2)c2c1nnn2CC1CCCCC1` (centres undefined) [3-(cyclohexylmethyl)-5,6-dihydrospiro[benzo[d][1,2,3]triazole-4,2'-oxiran]-7(3H)-one (21)] showed a pIC50 of under 4.30.
